{"source": "patent US20240252502A1", "about": "“HDAC6 INHIBITORS FOR TREATMENT OF METABOLIC DISEASE AND HFPEF” (Tenaya Therapeutics, Inc., priority 2021, published 2024)", "tested_on": "HFD/L-NAME mice (HFpEF model)", "assay": "HFD/L-NAME HFpEF mouse model, TYA-11018 versus Empagliflozin", "assay_type": "in vivo", "details": "15 mg/kg TYA-11018 or 10 mg/kg Empagliflozin orally once daily for 9 weeks", "experimental": "After HFpEF phenotypes were established, mice received 15 mg/kg TYA-11018 or 10 mg/kg Empagliflozin, or vehicle orally once daily for 9 weeks. Health monitoring was performed weekly with body weights recorded. Glucose tolerance test was performed after 1st dose. Cardiac function was recorded by echocardiography after treatment for 9 weeks. End diastolic pressure (EDP) was measured by PV-Loop at terminal at 9 weeks after dosing.\nAnimals: Cohort of mice with established HFpEF phenotypes and age/sex matched wild type controls were used for dosing study. […] After acclimation for 1 week, one group of mice was fed with high fat diet containing 0.07% L-NAME (LabDiet 5G5V, St Louis, MO) for 15 weeks. The control group of mice were fed with normal chow (LabDiet 5053, St Louis, MO). […] Animals were housed in an animal research facility in accordance with the National Research Council of the National Academies guidelines for the care and use of laboratory animals.\nA second group of mice was fed with standard chow for controls.\nTransthoracic echocardiography was performed using a VisualSonics Vevo 2100 system equipped with MS400 transducer (Visual Sonics, Toronto, ON). LVEF and other indices of systolic function were obtained from short-axis M-mode scans at the midventricular level, as indicated by the presence of papillary muscles, in conscious, gently restrained mice. […]\nIntraperitoneal glucose-tolerance tests were performed by injection of glucose (2 g/kg in saline) after 6 hour fasting (from 7 a.m. to 1 p.m.). Tail blood glucose levels (mg/dL) were measured by AimStrip Plus blood glucose strips used with the AimStrip Plus blood glucose monitoring system (Germaine Laboratories, San Antonio, TX) at 0 (baseline, before glucose dose), 15, 30, 45, 60 and 120 minutes after glucose administration.\nThe trachea was exposed by a midline incision from the base of the throat to just above the clavicle. […] The hemodynamic parameters were then recorded in close-chest mode. […]"}
{"compound": "OC[C@H]1O[C@@H](c2ccc(Cl)c(Cc3ccc(O[C@H]4CCOC4)cc3)c2)[C@H](O)[C@@H](O)[C@@H]1O", "note": "[Empagliflozin, empagliflozin]", "values": [{"measurement": "E/A", "result": "decreased"}, {"measurement": "E/e′ ratio", "result": "decreased"}, {"measurement": "end diastolic pressure", "setting": "PV-Loop", "result": "reduced end diastolic pressure"}]}
